Reference: patent publication US20180215787A1, “Chromogenic And Fluorogenic Peptide Substrates For The Detection Of Serine Protease Activity” (RUPRECHT-KARLS-UNIVERSITÄT HEIDELBERG, priority 2015, published 2018)
Each block holds one molecule with its values, some of them ahead of it.

What was measured:
[1] = cited from earlier work
factor Xa [2] = target: T1, factor Xa (Bos taurus, UniProt P00743); experiment: Kinetic measurements (Michaelis-Menten) of factor Xa substrates; assay type: biochemical
Description: (§1) Commercial substrate 1a, depicted in FIG. 2, was used as reference in the kinetic measurements. The kinetic values KM, kcat and kcat/KM were established for the fluorogenic compound 1 using Human Thrombin. In order to compare the results of 1 and 1a, the absorption of the released chromophores was measured during the enzymatic reaction (570 nm for resorufin and 380 nm for p-nitroaniline).
(§2) The same parameters were also determined for 1 by measuring the emission of resorufin at 583 nm and similar values to the ones obtained from absorption were found (FIG. 5A).
A similar conjugate, with the same peptide sequence, but having p-nitroanilide as reporter, has a much higher KM (40 μM) and the enzyme has poorer catalytic efficiency for this substrate (2.7×10^6 M^−1 s^−1). Thus, compound 2 of the present invention performs better than the best factor Xa substrate so far reported.
The kinetic parameters were determined as described for the other substrates (cf. Example 4). The results of Michaelis-Menten kinetic is depicted in FIG. 13.

thrombin [3] = target: T2, thrombin (Homo sapiens, UniProt P00734); experiment: Fluorescence assay for determination of thrombin in water (LOD); assay type: biochemical; settings: in water solution, without enrichment step
Description: The mean change of resorufin fluorescence dF/min is plotted versus the corresponding thrombin concentration (in pM).
(§3) the specificity of Compound 1 of the present invention toward thrombin was tested. Compound 1 (5 μM) was incubated in the presence of thrombin (100 pM) and some possible interfering proteases and proteins, like trypsin, factor Xa, myoglobin, cytochrome C and BSA (100 pM). The increase of fluorescence in response to factor Xa, myoglobin, cytochrome C and BSA was negligible (FIG. 6). […] A commercial assay can detect 1 pM thrombin, by fishing it out of plasma samples using microwells coated with DNA-aptamer. The AMC-based substrate is converted by thrombin to fluorescent product after the enrichment step. The fluorescence assay according to the present invention allowed the detection of thrombin at the concentrations as low as 0.5 pM in water solution (FIG. 7), which was achieved without any enrichment step.

[4] = Stability toward spontaneous hydrolysis in thrombin buffer; assay type: physicochemical; settings: incubation with thrombin buffer (Tris pH 8.3), 24° C.
Description: A. Absorption spectra of resorufin and compound 1 of the present invention; B. Enzymatic hydrolysis of 1 (5 μM) in the presence of thrombin (100 pM) with Tris buffer pH 8.3 (λex=570 nm; λem=583 nm) at 24° C.; inset: full emission spectra recorded after 60 min, with and without enzyme; C.
The photophysical properties of compound 1 of the present invention, as well as its enzymatic conversion to fluorescent product resorufin were investigated. […] It also has a negligible emission, if exited either at its maxima (480 nm) or at resorufin maxima (570 nm).

trypsin = experiment: Fluorescence specificity assay, trypsin; assay type: biochemical; settings: Compound 1 5 μM, trypsin 100 pM
Description: (§4) The enzymatic reactions were carried out in 50 mM Tris buffer pH 8.3 and 130 mM NaCl.
as §3

thrombin [5] = target: T2, thrombin; experiment: Kinetic measurements with Human Thrombin; assay type: biochemical; settings: absorption of released chromophore, 570 nm
Description: as §1, §2

thrombin [6] = target: T2, thrombin; experiment: Fluorescence assay to evaluate specificity of compound 1 toward thrombin; assay type: biochemical; settings: Compound 1 5 μM, proteases 100 pM
Description: as §4, §3

myoglobin = target: T3, myoglobin (Homo sapiens, UniProt P02144); experiment: Fluorescence specificity assay, myoglobin; assay type: biochemical; settings: Compound 1 5 μM, myoglobin 100 pM
T3 sequence (P02144 1-154): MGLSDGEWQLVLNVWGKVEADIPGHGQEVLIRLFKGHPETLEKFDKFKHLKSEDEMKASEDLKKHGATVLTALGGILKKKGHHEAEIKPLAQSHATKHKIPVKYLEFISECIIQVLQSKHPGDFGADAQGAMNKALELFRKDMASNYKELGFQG
Description: as §4, §3

cytochrome C = cytochrome C (Homo sapiens, UniProt P99999); experiment: Fluorescence specificity assay, cytochrome C; assay type: biochemical; settings: Compound 1 5 μM, cytochrome C 100 pM
Description: as §4, §3

factor Xa [7] = target: T1, factor Xa; experiment: Fluorescence specificity assay, factor Xa; assay type: biochemical; settings: Compound 1 5 μM, factor Xa 100 pM
Description: as §4, §3

BSA = BSA (Bos taurus, UniProt P02769); experiment: Fluorescence specificity assay, BSA; assay type: biochemical; settings: Compound 1 5 μM, BSA 100 pM
Description: as §4, §3

[8] = factor Xa substrate, Michaelis-Menten kinetic

T1 sequence (P00743 234-492 limits assumed): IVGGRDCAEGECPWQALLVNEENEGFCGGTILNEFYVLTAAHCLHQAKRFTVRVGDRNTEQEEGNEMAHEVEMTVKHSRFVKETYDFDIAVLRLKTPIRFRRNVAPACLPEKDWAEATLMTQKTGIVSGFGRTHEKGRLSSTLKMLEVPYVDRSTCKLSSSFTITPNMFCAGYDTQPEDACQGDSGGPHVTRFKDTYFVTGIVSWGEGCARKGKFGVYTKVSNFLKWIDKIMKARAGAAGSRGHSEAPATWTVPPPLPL
T1 sequence (P00743 41-180 partner limits assumed): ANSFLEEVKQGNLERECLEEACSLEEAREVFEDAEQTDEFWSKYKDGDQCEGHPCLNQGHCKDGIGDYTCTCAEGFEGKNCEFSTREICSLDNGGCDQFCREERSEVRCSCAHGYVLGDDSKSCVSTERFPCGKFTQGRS
BSA, sequence (P02769 25-607): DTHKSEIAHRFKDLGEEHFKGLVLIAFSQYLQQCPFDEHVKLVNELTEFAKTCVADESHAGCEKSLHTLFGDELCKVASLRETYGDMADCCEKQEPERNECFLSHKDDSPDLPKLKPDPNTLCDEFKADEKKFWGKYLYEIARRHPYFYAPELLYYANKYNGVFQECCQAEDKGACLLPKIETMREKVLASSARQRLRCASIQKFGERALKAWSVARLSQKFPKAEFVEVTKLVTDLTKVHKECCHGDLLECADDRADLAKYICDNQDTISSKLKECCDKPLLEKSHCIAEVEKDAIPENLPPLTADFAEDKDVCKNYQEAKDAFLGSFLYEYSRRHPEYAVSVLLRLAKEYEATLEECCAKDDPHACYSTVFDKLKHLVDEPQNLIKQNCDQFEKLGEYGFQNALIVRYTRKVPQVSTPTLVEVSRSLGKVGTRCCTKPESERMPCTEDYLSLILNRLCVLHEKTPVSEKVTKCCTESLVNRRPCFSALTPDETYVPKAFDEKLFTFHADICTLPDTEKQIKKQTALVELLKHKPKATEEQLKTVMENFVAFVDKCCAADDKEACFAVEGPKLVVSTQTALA
cytochrome C, sequence (P99999 whole entry, species assumed): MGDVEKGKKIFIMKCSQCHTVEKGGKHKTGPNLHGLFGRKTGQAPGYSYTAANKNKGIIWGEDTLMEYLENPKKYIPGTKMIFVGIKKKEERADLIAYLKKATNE

Molecule: O=c1ccc2nc3ccc(O)cc3oc-2c1 [resorufin, 7-Hydroxy-3H-phenoxazin-3-one]
- pKa [1]: ~6.0

- KM value (in words) (factor Xa [2]; FIG. 5B): very low KM value
- catalytic efficiency (in words) (factor Xa [2]; FIG. 5B): excellent catalytic efficiency
- turnover number kcat (in words) (factor Xa [2]; FIG. 5B): relatively good turnover number
Molecule: BzIs-D-Arg-Gly-Arg-PABA-Res [Compound 2]

- Km (factor Xa [2]; [8]): 5.5 µM
- kcat (factor Xa [2]; [8]): 4.9 s⁻¹
Molecule: Cbz-D-Arg-Gly-Arg-PABA-Res [Compound 2a]

Molecule: D-Phe-Pro-Arg-PABA-Res [Compound 1]
- lowest detectable thrombin concentration (thrombin [3]): 0.5 pM
- spontaneous hydrolysis / chemical stability [4]: no spontaneous hydrolysis
- hydrolysis by trypsin (rate compared to thrombin) (trypsin): slower rate compared to thrombin
- thrombin turnover compared with commercial substrate 1a (thrombin [5]): did not suffer at all
- specificity for thrombin compared to factor Xa (thrombin [6]): 400 times
- selectivity for thrombin over trypsin (thrombin [6]; 50 mM Tris pH 8.3, 130 mM NaCl): 7.5 fold
- increase of fluorescence in response to myoglobin (myoglobin): negligible
- increase of fluorescence in response to cytochrome C (cytochrome C): negligible
- increase of fluorescence in response to factor Xa (factor Xa [7]): negligible
- increase of fluorescence in response to BSA (BSA): negligible
